Some results are limits rather than exact numbers.

The source of these data is patent US9040523B2, “Antifungal 5,6-dihydro-4H-pyrrolo[1,2-α][1,4]-benzodiazepines and 6H-pyrrolo[1,2-α][1,4]benzodiazepines substituted with benzene derivatives” (JANSSEN PHARMACEUTICA NV, priority 2010, dated 2015).

Data set [1] can be described thus: Liver metabolic stability assay, gpLM. Format: in vitro ADME, guinea pig. Particulars: guinea pig microsomes, 1 mg protein/ml, 5 μM test compound, 15 min, 37 °C. As for the experimental part: (§1) Liver preparations (microsomal fractions) were obtained from BD Gentest (San Jose, Calif., US). Metabolic stability was assessed using the following assay conditions. […] The mixture was pre-incubated at 37° C. for 5 min and the enzymatic reaction was started by addition of 5 μM test compound. After 0 (control) and 15 minutes (min), the reactions were terminated by addition of […] (500 μl). The precipitated material was removed by centrifugation at 1200 g for 10 min. The supernatant was analysed by LC-MS/MS on a ThermoFinnigan LCQ Deca XP ion-trap mass spectrometer equipped with an atmospheric pressure chemical ionisation source. Calculation of %-compound remaining was as described by Kantharaj et al. 2003 ((Kantharaj E., Tuytelaars A, Proost P E A, Ongel Z, van […] (2003). Simultaneous measurement of drug metabolic stability and identification of metabolites using ion-trap mass spectrometry.

Data set [2] is described as follows: Liver metabolic stability assay, mLM. It counts as in vitro ADME. Particulars: mouse liver microsomes, 1 mg protein/ml, 5 μM test compound, 15 min, 37 °C. The protocol: as §1
Data set [3] can be described thus: Liver metabolic stability assay, hLM. It counts as in vitro ADME, human. The following applies: human liver microsomes, 1 mg protein/ml, 5 μM test compound, 15 min, 37 °C. As for the experimental part:
as §1

For data set [4], the system named is Aspergillus fumigatus B42928. Nature of the data set: Antifungal activity in vitro (resazurin susceptibility screen), Inf. E. It counts as cell-based. The following applies: Aspergillus fumigatus B42928; 27 °C, 48 hours, resa time 17 hours; read-out: Inf. E pIC50 (converted). Summed up: (§2)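 This resazurin susceptibility screen used wells inoculated with 10^3 cfu per 200 μl in RPMI-MOPS, dispensed onto test plates holding spotted compound dilutions. Growth was normalised between fungus without antifungal (100%) and medium alone (0%).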

Data set [5] concerns Sporothrix schenkii B62482. The data set can be described thus: Antifungal activity in vitro (resazurin susceptibility screen), Inf. A. It counts as cell-based. The following applies: Sporothrix, B62482, Sporothrix schenkii B62482; 27 °C, 4 days, resa time 24 hours; highest in-test concentration 64 μM; read-out: Inf. A pIC50 (converted). Summed up:
as §2

Data set [6] concerns Cryptococcus neoformans B66663. The data set can be described thus: Antifungal activity in vitro (resazurin susceptibility screen), Inf. F. Format: cell-based. Particulars: Cryptococcus neoformans, B66663, Cryptococcus neoformans B66663; 37 °C, 24 hours, resa time 4 hours; read-out: Inf. F pIC50 (converted). Summed up: as §2
Data set [7] deals with Trichophyton rubrum B68183. Nature of the data set: Antifungal activity in vitro (resazurin susceptibility screen), Inf. C. It counts as cell-based. Particulars: Trichophyton rubrum B68183; 27 °C, 7 days, resa time 24 hours; read-out: Inf. C pIC50 (converted). Summed up: as §2
Data set [8] deals with Trichophyton mentagrophytes B70554. The data set can be described thus: Antifungal activity in vitro (resazurin susceptibility screen), Inf. G. It counts as cell-based. Particulars: Trichophyton mentagrophytes, B70554, Trichophyton mentagrophytes B70554; 27 °C, 7 days, resa time 24 hours; read-out: Inf. G pIC50 (converted). Summed up: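 Each well was inoculated with 10^3 cfu of fungus onto dried, pre-spotted compound serial dilutions in RPMI-MOPS medium, with fungal growth read by resazurin. Growth was referenced to drug-free culture (100%) and medium-only (0%) controls on each plate.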

In the next data set the target is T1, Cytochrome P450 2C8 (Homo sapiens, UniProt P10632).
T1 construct: tissue BD Gentest; host or cells: human liver microsomes
T1 sequence (P10632 1-490): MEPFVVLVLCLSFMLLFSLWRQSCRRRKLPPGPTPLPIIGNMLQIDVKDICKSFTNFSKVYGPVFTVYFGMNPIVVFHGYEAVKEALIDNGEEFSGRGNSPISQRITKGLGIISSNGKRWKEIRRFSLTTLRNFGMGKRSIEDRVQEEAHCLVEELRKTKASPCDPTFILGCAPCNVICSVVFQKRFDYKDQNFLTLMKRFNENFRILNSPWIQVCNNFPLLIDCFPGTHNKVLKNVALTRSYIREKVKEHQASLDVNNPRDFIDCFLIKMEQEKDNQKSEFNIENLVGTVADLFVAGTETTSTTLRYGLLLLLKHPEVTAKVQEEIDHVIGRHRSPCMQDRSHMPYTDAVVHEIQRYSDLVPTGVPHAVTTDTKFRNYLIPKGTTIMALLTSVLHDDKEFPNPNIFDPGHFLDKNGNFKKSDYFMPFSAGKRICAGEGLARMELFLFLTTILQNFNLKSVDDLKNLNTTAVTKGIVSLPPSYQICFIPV
Nature of the data set: Human liver microsomal cytochrome P450 cocktail inhibition assay, Protocol C. Format: in vitro ADME. Particulars: human liver microsomes 0.2 mg/ml; probe amodiaquine 2 microM; read-out: 2C8_Amod pIC50 (converted). As for the experimental part: (§3) Probe substrates and final assay concentrations with the appropriate internal standard are outlined in Table 6a.
(§4) Assays were performed in 0.1 M phosphate buffer (pH 7.4), containing 0.2 mg/ml human liver microsomes (BD Gentest) and a probe substrate mix consisting of: phenacetin, tolbutamide, S-mephenyloin, dextromethorphan, amodiaquine and midazolam (Table 6a) and a range of test compound concentrations (0 to 30 micromolar) in a total volume of 100 microliters. After a 10 min pre-incubation at 37° C., the reaction was started with addition of NADPH at a final concentration of 1.0 mM. […] The samples are centrifuged for 10 min at 4° C. at 4000 rpm and 60 microliters supernatant is diluted with 180 microliters water. Each sample is injected onto a UPLC/MS system for the simultaneous measurement of the probe substrate metabolites and their associated deuterated internal standards. Percentage inhibition is calculated according to: %-inhibition=(1−Ri/R)*100, whereby Ri and R are the metabolite to internal standard peak area ratios in the presence and absence of inhibitor respectively.
(§5) Percentage inhibition data are plotted against the Log transformed test compound concentration and after curve fitting the IC50-value is determined.

In a further data set the target is Cytochrome P450 2D6 (Homo sapiens, UniProt P10635). Described as above. The following applies: 2D6_Dextro pIC50, human liver microsomes 0.2 mg/ml; probe dextromethorphan 3 microM. The protocol: as §3, §4, §5
Cytochrome P450 2D6, sequence (P10635 whole entry): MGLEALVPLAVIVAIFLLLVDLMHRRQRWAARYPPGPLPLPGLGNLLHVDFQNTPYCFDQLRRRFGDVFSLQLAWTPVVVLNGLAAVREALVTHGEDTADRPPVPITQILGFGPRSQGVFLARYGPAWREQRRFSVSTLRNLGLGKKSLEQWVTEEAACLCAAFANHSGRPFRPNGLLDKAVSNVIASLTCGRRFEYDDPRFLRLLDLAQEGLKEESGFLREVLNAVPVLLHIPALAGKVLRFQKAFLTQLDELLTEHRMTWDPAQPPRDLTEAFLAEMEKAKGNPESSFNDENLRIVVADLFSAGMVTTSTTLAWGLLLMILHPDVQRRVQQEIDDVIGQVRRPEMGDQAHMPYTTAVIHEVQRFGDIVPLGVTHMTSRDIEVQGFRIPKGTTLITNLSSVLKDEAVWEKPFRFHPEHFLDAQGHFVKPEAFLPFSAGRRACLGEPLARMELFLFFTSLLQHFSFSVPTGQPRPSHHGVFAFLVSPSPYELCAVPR
For the next data set, the target named is Cytochrome P450 2C9 (Homo sapiens, UniProt P11712). Described as above. Particulars: 2C9 Tolbut pIC50, human liver microsomes 0.2 mg/ml; probe tolbutamide 100 microM. As for the experimental part: as §3, §4, §5
Cytochrome P450 2C9, sequence (P11712 whole entry): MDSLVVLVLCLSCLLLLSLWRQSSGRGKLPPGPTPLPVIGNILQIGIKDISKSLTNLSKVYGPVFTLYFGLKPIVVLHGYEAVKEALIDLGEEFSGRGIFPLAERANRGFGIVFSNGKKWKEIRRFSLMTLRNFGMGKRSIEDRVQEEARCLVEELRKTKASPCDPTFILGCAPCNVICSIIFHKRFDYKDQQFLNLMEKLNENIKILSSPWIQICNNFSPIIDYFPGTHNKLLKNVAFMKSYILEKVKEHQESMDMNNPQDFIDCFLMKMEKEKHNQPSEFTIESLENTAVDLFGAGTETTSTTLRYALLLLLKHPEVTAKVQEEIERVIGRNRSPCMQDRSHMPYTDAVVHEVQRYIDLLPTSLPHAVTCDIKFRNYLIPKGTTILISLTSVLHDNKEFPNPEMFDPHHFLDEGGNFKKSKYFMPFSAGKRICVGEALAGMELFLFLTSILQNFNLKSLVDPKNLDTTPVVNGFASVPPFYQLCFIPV
A further data set addresses T2, Cytochrome P450 1A2 (Homo sapiens, UniProt P05177).
T2 sequence (P05177 1-516): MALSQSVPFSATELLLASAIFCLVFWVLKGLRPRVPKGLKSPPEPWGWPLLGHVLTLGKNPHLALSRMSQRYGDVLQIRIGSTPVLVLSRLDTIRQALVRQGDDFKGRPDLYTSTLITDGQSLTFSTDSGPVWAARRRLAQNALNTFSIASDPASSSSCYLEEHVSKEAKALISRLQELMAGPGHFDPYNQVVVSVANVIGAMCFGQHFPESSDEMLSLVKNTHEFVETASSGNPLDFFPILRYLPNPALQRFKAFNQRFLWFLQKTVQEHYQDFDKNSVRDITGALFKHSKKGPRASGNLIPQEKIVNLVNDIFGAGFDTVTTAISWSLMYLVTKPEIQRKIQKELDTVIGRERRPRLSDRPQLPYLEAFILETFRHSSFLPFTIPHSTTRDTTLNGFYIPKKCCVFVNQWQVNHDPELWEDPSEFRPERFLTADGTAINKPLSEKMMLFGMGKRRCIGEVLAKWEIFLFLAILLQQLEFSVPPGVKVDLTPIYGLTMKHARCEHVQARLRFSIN
The data set is described as above. The protocol:
as §3, §4, §5

Another data set has as its target Cytochrome P450 2C19 (Homo sapiens, UniProt P33261). The data set is described as above. Particulars: 2C19_S-Meph pIC50, human liver microsomes 0.2 mg/ml; probe S-mephenytoin 30 microM. As for the experimental part: as §3, §4, §5

Cytochrome P450 2C19, sequence (P33261 whole entry): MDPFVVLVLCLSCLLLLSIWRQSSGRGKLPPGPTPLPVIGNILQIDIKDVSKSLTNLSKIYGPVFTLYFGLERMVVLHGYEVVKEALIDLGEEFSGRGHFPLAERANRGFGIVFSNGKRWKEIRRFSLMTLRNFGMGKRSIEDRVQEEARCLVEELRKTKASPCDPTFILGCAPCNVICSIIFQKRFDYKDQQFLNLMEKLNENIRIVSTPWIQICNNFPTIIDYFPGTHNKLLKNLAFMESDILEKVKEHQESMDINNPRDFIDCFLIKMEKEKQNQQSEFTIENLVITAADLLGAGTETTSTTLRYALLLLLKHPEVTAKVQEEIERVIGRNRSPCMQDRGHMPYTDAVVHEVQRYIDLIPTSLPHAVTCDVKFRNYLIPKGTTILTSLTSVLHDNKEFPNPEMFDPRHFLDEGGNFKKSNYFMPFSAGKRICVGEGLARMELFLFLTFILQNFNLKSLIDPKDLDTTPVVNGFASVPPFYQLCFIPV

Regarding `CC(=O)c1ccc(C2NCc3c(Cl)cccc3-n3cccc32)cc1.Cl` (centres unmarked) [Compound 5, 1-[4-(7-chloro-5,6-dihydro-4H-pyrrolo[1,2-a][1,4]benzodiazepin-4-yl)phenyl]-ethanone .HCl], in [1], the “%-compound metabolised Met_gpLM” value was found to be 88%. In data set [2], the “%-compound metabolised Met_mLM” value is 72%. In data set [3], the “%-compound metabolised_Met_hLM” value worked out at 59%. The IC50 is 2 µM in [4]; 39.8 µM in [5]; 25.1 µM in [6]; 0.501 µM in [7]; 0.631 µM in data set [8].
Regarding `CC(=O)c1ccc(C2=NCc3c(Cl)cccc3-n3cccc32)cc1` [drawing 91], the IC50 at Cytochrome P450 2C8, on Cytochrome P450 2D6, against Cytochrome P450 2C9, against Cytochrome P450 1A2 and against Cytochrome P450 2C19 was over 10 µM in each case.
Turning to `CCc1ccc(C2=NCc3c(Cl)cccc3-n3cccc32)cc1` [drawing 92], the IC50 on Cytochrome P450 2C8 was over 10 µM; on Cytochrome P450 2D6, over 10 µM; against Cytochrome P450 2C9, over 10 µM; against Cytochrome P450 1A2, over 10 µM; on Cytochrome P450 2C19, 1.58 µM.
With `CS(=O)(=O)c1ccc(C2=NCc3c(Cl)cccc3-n3cccc32)cc1` [drawing 93], the IC50 on Cytochrome P450 2C8 was over 10 µM; against Cytochrome P450 2D6 it was 7.59 µM; against Cytochrome P450 2C9 it was over 10 µM; on Cytochrome P450 1A2, over 10 µM; against Cytochrome P450 2C19 it was over 10 µM.
Take `CC(O)c1ccc(C2NCc3c(Cl)cccc3-n3cccc32)cc1` (centres unmarked) [drawing 97]: the IC50 at Cytochrome P450 2C8 was over 10 µM; against Cytochrome P450 2D6, over 10 µM; on Cytochrome P450 2C9, over 10 µM; against Cytochrome P450 1A2, over 10 µM; on Cytochrome P450 2C19, 5.13 µM.
Turning to `CC(=O)c1cccc(C2NCc3c(Cl)cccc3-n3cccc32)c1` (centres unmarked) [drawing 99], the IC50 on Cytochrome P450 2C8 is 7.94 µM; on Cytochrome P450 2D6, 3.16 µM; on Cytochrome P450 2C9, 1.58 µM; against Cytochrome P450 1A2, over 10 µM; against Cytochrome P450 2C19, 0.158 µM.
The corresponding values for `CC(=O)c1ccc(C2NCc3ccc(Cl)cc3-n3cccc32)cc1` (centres unmarked) [drawing 101] are 7.94 µM, 7.94 µM, 6.31 µM, over 10 µM and 3.16 µM.
